Results published in PMC7734623 (Antiviral chemistry & chemotherapy, 2012).
In brackets after ≈: the same amount, converted by molar mass. Where a name gives a salt, the structure may show the parent alone. Read-outs that look alike come from different tables or passages of the source.

Experiments:
[1] = system: severe acute respiratory syndrome (SARS) coronavirus (strain Urbani); assay: microbe, parasite or virus in culture; format: cell-based
in vitro [2] = conditions: African green monkey
HIV-1LAI = assay: HIV-1 replication reverse transcriptase assay in PBMC; format: cell-based, HIV type-1; conditions: for anti-HIV-1 activity (in words): HIV-1LAI in human PBMC
[3] = system: primary human peripheral blood mononuclear cells
in vitro [4] = conditions: human
[5] = system: A/California/07/2009 (pandemic swine-origin H1N1); assay: microbe, parasite or virus in culture; format: cell-based, Influenza A virus (H1N1)
[6] = system: A/Perth/16/2009 (seasonal H3N2); assay: microbe, parasite or virus in culture; format: cell-based, Influenza A virus (H3N2)
[7] = system: A/duck/Minnesota/1525/81 (low pathogenic avian influenza H5N1); assay: microbe, parasite or virus in culture; format: cell-based, Influenza A virus (H5N1 low pathogenic)
[8] = system: A/Vietnam/1203/2004 (highly pathogenic avian influenza H5N1); assay: microbe, parasite or virus in culture; format: cell-based, Influenza A virus (H5N1 highly pathogenic)
B/Florida/4/2006 = assay: microbe, parasite or virus in culture; format: cell-based, Influenza B virus
[9] = system: human parainfluenza virus type 3 (isolate 14702); assay: microbe, parasite or virus in culture; format: cell-based
in vitro [10] = conditions: dog
in vitro [11] = conditions: African green monkey; remark: listed apart in the source
[12] = system: primary human peripheral blood mononuclear cells; assay: Cytotoxicity on PBMCs; conditions: for CC50: experiment 1, PBMC
[13] = system: Madin–Darby canine kidney (MDCK) cells; conditions: A/duck/Minnesota/1525/81 test
[14] = system: MA-104 embryonic African green monkey kidney epithelial cells
[15] = system: Vero 76 African green monkey kidney epithelial cells
[16] = Hydrolytic stability of DMSO stock solution under freezing–; conditions: multiple freezing–(re-thawing) cycles
[17] = experiment 1, DMSO stock after second FRC
[18] = experiment 1, PBMC, 9: fresh DMSO stock
[19] = experiment 1, PBMC, RT activity in supernatant, 9: fresh DMSO stock
[20] = experiment 2, PBMC, 9: fresh DMSO stock
[21] = Human immunodeficiency virus 1, PBMC, experiment 1, PBMC, 9: fresh DMSO stock
[22] = Human immunodeficiency virus 1, PBMC, experiment 2, PBMC, 9: fresh DMSO stock

CC(C)C[C@H](NC(=O)OCc1ccccc1)C(=O)NC(CCC(=O)N(C)C)C(=O)CF (mixture of isomers) [EP128533, (4RS)-4-[N-(benzyloxycarbonyl)-L-leucylamino]-6-fluoro-5-oxohexanoic acid N,N-dimethylamide, reference compound]
EC50 ([1]; Severe acute respiratory syndrome-related coronavirus, Vero 76): 1.3 µg/mL | CC50 (in vitro [2]): > 100 µg/mL

[1,4-Bis(4-hydroxyphenyl)butane-1,4-dione – 1,4-bis(4-methoxyphenyl)butane-1,4-dione (7) – (2S,2′S)-2,2′-{[(tricyclo[3.3.1.1^3,7]dec-1-ylamino)methanediyl] bis(pteroylimino)}dipentanedioic acid (0.2:1:1)]×3 H2O×0.4 acetone [Compound 9]
antiretroviral activity after first FRC (in words) (HIV-1LAI; DMSO stock after first FRC): seriously affected | antiretroviral activity after second FRC (in words) (HIV-1LAI; DMSO stock after second FRC): completely lost | anti-HIV-1 activity (in words) (HIV-1LAI): effective inhibitor | EC90 (HIV-1LAI; experiment 1, DMSO stock after first FRC): 57.7 µM | EC50 (HIV-1LAI; experiment 1, DMSO stock after first freezing-(re-thawing) cycle (FRC)): 32.7 µM | EC50 (HIV-1LAI; [17]): > 100 µM | EC90 (HIV-1LAI; [17]): > 100 µM | EC90 (HIV-1LAI; [18]): 34.2 µM | EC50 (HIV-1LAI; [19]): 3.5 µM | EC50 (HIV-1LAI; [20]): 10.8 µM | EC90 (HIV-1LAI; [20]): 34.8 µM

CC(=NC12CC3CC(CC(C3)C1)C2)c1ccc(F)cc1 [Compound 4, 1-(4-Fluorophenyl)ethanone – tricyclo[3.3.1.1^3,7]dec-1-ylazanylidene (1:1)]
anti-HIV-1 activity (in words) (HIV-1LAI): did not show any anti-HIV-1 activity | EC90 (HIV-1LAI; [18]): > 100 µM | EC50 (HIV-1LAI; [19]): > 100 µM | CC50 [3]: > 100 µM

NC12CC3CC(CC(C3)C1)C2 [1 ×HCl, 1-Adamantanammonium chloride, reference compound]
anti-HIV-1 activity (in words) (HIV-1LAI): did not show any anti-HIV-1 activity | EC90 (HIV-1LAI; [21]): > 100 µM | SI50 (selectivity index CC50/EC50) (HIV-1LAI; experiment 1): >1.1 | CC50 (in vitro [4]): > 100 µM

NC(=O)c1ncn([C@@H]2O[C@H](CO)[C@@H](O)[C@H]2O)n1 [ribavirin, 1-β-D-ribofuranosyl-1H-1,2,4-triazole-3-carboxamide, reference compound]
EC50 ([5]; Influenza A virus, H1N1, MDCK): 4.2 µg/mL (≈ 17.2 µM) | EC50 ([6]; Influenza A virus, H3N2, MDCK): 2.9 µg/mL (≈ 11.9 µM) | EC50 ([7]; Influenza A virus, H5N1, MDCK): 5.4 µg/mL | EC50 ([8]; Influenza A virus, H5N1, MDCK): 9.4 µg/mL (≈ 38.5 µM) | EC50 (B/Florida/4/2006; Influenza B virus, MDCK): 3.9 µg/mL (≈ 16 µM) | EC50 ([9]; Human respirovirus 3, MA104): 14 µg/mL (≈ 57.3 µM) | CC50 (in vitro [10]): > 100 µg/mL | CC50 (in vitro [11]): 190 µg/mL (≈ 778 µM)

Nc1nc2ncc(CNc3ccc(C(=O)N[C@@H](CCC(=O)[O-])C(=O)[O-])cc3)nc2c(=O)[nH]1.O.O.O.O.[Na+].[Na+] [Compound 11, Disodium (2S)-2-(pteroylamino)pentanedioate×4 H2O]
anti-HIV-1 activity (in words) (HIV-1LAI): did not show any anti-HIV-1 activity | EC90 (HIV-1LAI; [18]): > 100 µM | EC50 (HIV-1LAI; [19]): > 100 µM | CC50 [3]: > 100 µM

O=C([O-])CC[C@H](NC(=O)c1ccc(NCc2cnc3nc([N-]c4nc5ncc(CNc6ccc(C(=O)N[C@@H](CCC(=O)[O-])C(=O)[O-])cc6)nc5c(=O)[nH]4)[nH]c(=O)c3n2)cc1)C(=O)[O-].[Na+].[Na+].[Na+].[Na+].[Na+] [Compound 10, Pentasodium (2S,2′S)-2,2′-{azanidediylbis[(4-{[(4-oxo-3,4-dihydropteridine-2,6-diyl)methyl]amino}benzoyl)amino]}dipentanedioate×3 H2O×2.5 acetone]
anti-HIV-1 activity (in words) (HIV-1LAI): did not show any anti-HIV-1 activity | EC90 (HIV-1LAI; [18]): > 100 µM | EC50 (HIV-1LAI; [19]): > 100 µM | CC50 [12]: > 100 µM

Cl.O=C(CNC12CC3CC(CC(C3)C1)C2)c1ccc(F)cc1 [Compound 12, 1-(4-Fluorophenyl)-2-(tricyclo[3.3.1.1^3,7]dec-1-ylamino) ethanone hydrochloride×0.11 H2O]
anti-HIV-1 activity (in words) (HIV-1LAI): did not show any anti-HIV-1 activity | EC90 (HIV-1LAI; [18]): > 100 µM | EC50 (HIV-1LAI; [19]): > 100 µM | EC50 [5]: >36 µg/mL | inhibition of virus replication (in words) [5]: inactive | EC50 [6]: >37 µg/mL | inhibition of virus replication (in words) [6]: inactive | inhibition of virus replication (in words) ([7]; A/duck/Minnesota/1525/81 (H5N1), amantadine-susceptible): did inhibit | EC50 ([7]; A/duck/Minnesota/1525/81, MDCK (25 CCID50), neutral red): 0.95 µg/mL | EC50 ([7]; low pathogenic H5N1 A/duck/Minnesota/1525/81): 2.92 µM | inhibition of virus replication (in words) ([8]; A/Vietnam/1203/2004): inactive | EC50 ([8]; A/Vietnam/1203/2004, MDCK (≤42 CCID50), neutral red): 50 µg/mL | EC50 (B/Florida/4/2006): >50 µg/mL | inhibition of virus replication (in words) (B/Florida/4/2006): inactive | EC50 [9]: >49 µg/mL | inhibition of virus replication (in words) [9]: did not inhibit | inhibition of virus replication (in words) ([1]; SARS coronavirus): did not inhibit | EC50 ([1]; Urbani, Vero 76 (130 CCID50), neutral red): 92 µg/mL | CC50 [3]: > 100 µM | CC50 [13]: 35 µg/mL | CC50 [14]: 49 µg/mL | CC50 [15]: >100 µg/mL | activity of DMSO stock solution during multiple FRCs (in words) [16]: did not lose activity

Nc1nc2ncc(CNc3ccc(C(=O)N[C@@H](CCC(=O)O)C(=O)O)cc3)nc2c(=O)[nH]1.O.O [Compound 8, L-folic acid dihydrate, reference compound]
anti-HIV-1 activity (in words) (HIV-1LAI): did not show any anti-HIV-1 activity | EC50 (HIV-1LAI; [20]): > 100 µM | EC90 (HIV-1LAI; [20]): > 100 µM | toxicity in PBMC (in words) [12]: exhibited toxicity | CC50 [12]: 25.7 µM

CCC(CC)O[C@@H]1C=C(C(=O)O)C[C@H](N)[C@H]1NC(C)=O [oseltamivir carboxylate, (3R,4R,5S)-4-(acetylamino)-5-amino-3-(pentan-3-yloxy)cyclohex-1-ene-1-carboxylic acid, reference compound]
EC50 ([7]; Influenza A virus, H5N1, MDCK): 0.061 µg/mL | CC50 (in vitro [10]): > 10 µg/mL

Cc1cn([C@H]2C[C@H](N=[N+]=[N-])[C@@H](CO)O2)c(=O)[nH]c1=O [AZT, 3′-azido-3′-deoxythymidine, reference compound]
EC90 (HIV-1LAI; [21]): 0.031 µM | EC50 (HIV-1LAI; [22]): 0.0091 µM | EC90 (HIV-1LAI; [22]): 0.047 µM | SI50 (selectivity index CC50/EC50) (HIV-1LAI; experiment 1): >22,727 | SI50 (selectivity index CC50/EC50) (HIV-1LAI; experiment 2): >10,989 | CC50 ([3]; human): > 100 µM | CC50 (in vitro [4]): > 100 µM
